Experimental data reported in patent US20220088195A1, “Prevention or mitigation of T-cell bispecific antibody-related adverse effects” (Hoffmann-La Roche Inc., priority 2020, published 2022).

Key:
SUDLH-8 tumor cells = experiment: Killing assay, PBMCs + CTV labelled SUDLH-8 cells + CD19-TCB, flow cytometry 24 hrs; type: cell-based, human; details: 100 nM dasatinib, monohydrate
Description: FIG. 26. In vitro killing assay set-up. PBMCs were co-cultured with CellTrace™ Violet (CTV)-labelled SUDLH-8 tumor cells (E:T=10:1) and escalating concentrations of CD19-TCB in the presence and absence of 100 nM dasatinib.
FIG. 27. […] The killing of SUDLH-8 tumor cells was measured by flow cytometry using a Live Dead Near InfraRed (NIR) dye allowing for exclusion of dead cells (24 hrs) in the assay described in FIG. 26. Mean of n=3 donors+SD. One way ANOVA, Friedman test, p-value: 0.1234 (ns), 0.0332 (*), 0.0021 (**), 0.0001 (***), <0.0001 (****).
The killing of CTV labelled SUDLH-8 cells was measured by flow cytometry using a Live/Dead Near Infra Red (NIR) dye. […] The expression of CD69 and CD25 were measured on CD4+ (FIG. 28) and CD8+(FIG. 29) T cells by flow cytometry as a readout for T cell activation. […] Lastly, the cytokine levels were analyzed in the supernatants of the assay by Luminex to evaluate the effect of dasatinib on CD19-TCB-induced cytokine release (FIGS. 30 and 31).

[1] = 146 patients, 100 mg dasatinib QD; cited from earlier work
[2] = test system: lymphoma patient derived xenograft (PDX); experiment: Humanized NSG mice engrafted with lymphoma PDX: serum cytokines, body weight, tumor growth; type: in vivo
Description: Humanized NSG mice were engrafted with a lymphoma PDX (5 million cells, s.c.). When tumors reached 200 mm^3, mice were randomized in groups of 8 or 7 based on their tumor size. They were treated with vehicle (i.v.), 0.5 mg/kg CD19-TCB (i.v.) as a monotherapy, 20 mg/kg dasatinib (p.o.) alone or in combination with 0.5 mg/kg CD19-TCB (i.v.). The serum of each mouse in the vehicle, CD19-TCB, and CD19-TCB+dasatinib groups and of n=4 mice in the dasatinib group was collected by tail-vein bleeding 6 hrs after the first treatment with CD19-TCB.
Cytokine levels in each individual mouse from the experiment described in FIG. 37. The levels of IFN-γ (A), TNF-α (B), IL-2 (C) and IL-6 (D) were measured in the serum by multiplex cytokine analysis using Luminex. Mean of n=6-8 mice+/−SEM with *p≤0.05, **p≤0.01, ***p≤0.001 by 1 way ANOVA (Kruskal Wallis test).
Body weight loss for each individual mouse from the experiment described in FIG. 37. The change in body weight [%] is measured as a percentage of the body weight before first treatment with CD19-TCB for each mouse. Box and whiskers showing minimum to maximum values of n=6-8 mice per group.
Tumor growth curves of the experiment described in FIG. 37. Tumor growth curves were plotted from tumor volumes measured using a Caliper, mean of n=6-8 mice+SD with **p≤0.01 by 1 way ANOVA (Kruskal Wallis test).
We evaluated the impact of transient interventions with dasatinib on CD19-TCB anti-tumor activity in humanized NSG mice engrafted with a lymphoma patient derived xenograft (PDX). Therefore, mice were treated with either vehicle, 0.5 mg/kg CD19-TCB as a monotherapy, or 20 mg/kg dasatinib, alone or in combination with 0.5 mg/kg CD19-TCB (FIG. 37). Dasatinib was given one hour prior and 6 hrs after the first treatment with CD19-TCB and then twice per day for the next 2 days to prevent cytokine release, predominantly occurring upon the first infusion. Moreover, dasatinib was also administered one hour before each subsequent treatment to prevent eventual residual cytokine secretion (FIG. 37).

[3] = blood of mice; cited from earlier work
Z138 target cells = experiment: Two-stimulation killing assay, PBMCs + Z138 target cells + CD20-TCB; type: cell-based, human; details: 100 nM dasatinib upon re-stimulation; 1 nM CD20-TCB
Description: FIG. 23. In vitro killing assay set-up and timelines. PBMCs were co-cultured with carboxyfluorescein succinimidyl ester (CFSE) labelled Z138 target cells (E:T=5:1) and […] 1 nM CD20-TCB for 20h. Activated PBMCs were washed and restimulated on fresh, CTV labelled Z138 target cells (E:T=5:1) and 1 nM CD20-TCB in the presence or absence of 100 nM dasatinib.
FIG. 24. Dead Z138 cells upon first and second stimulation with 1 nM CD20-TCB in the presence and absence of 100 nM dasatinib in the assay of FIG. 23, as measured by flow cytometry. Cells were collected 20h after the first and 24 h after the second stimulation and stained with live dead NIR dye. Mean of technical replicates+/−SD. N=3 donors.
FIG. 25. Dead Z138 cells upon second stimulation with 1 nM CD20-TCB in the presence and absence of 100 nM dasatinib in the assay of FIG. 23, as measured by flow cytometry. Cells were collected 24 h after second stimulation and stained with live dead NIR dye. Mean of technical replicates+/−SD. Three donors D1-D3 (A-C).
A similar re-stimulation experiment was performed with a different TCB, targeting CD20 (CD20-TCB (SEQ ID NOs 28-35, 48-59), 1 nM), and the killing of Z138 target cells measured after the first and second stimulation (FIG. 23).

SKM-1 tumor cells = experiment: Two-stimulation (ON/OFF) killing assay, PBMCs + CFSE/CTV labelled SKM-1 cells + HLA-A2 WT-1-TCB, FACS; type: cell-based, human
Description: FIG. 8. In vitro killing assay set-up and timelines. PBMCs were co-cultured with carboxyfluorescein succinimidyl ester (CFSE) labelled SKM-1 target cells (E:T=5:1) and 10 nM HLA-A2 WT-1-TCB for 20h. Activated PBMCs were washed and restimulated on fresh, CTV labelled SKM-1 target cells (E:T=5:1) and 10 nM HLA-A2 WT-1-TCB in the presence or absence of 100 nM dasatinib.
FIG. 10. SKM-1 target cell viability upon first stimulation with 10 nM HLA-A2 WT-1-TCB in the absence of dasatinib (left) and upon second stimulation with 10 nM HLA-A2 WT-1-TCB in the presence of 100 nM dasatinib (right). Target cell viability was measured by FACS after 44h in the assay of FIG. 8. Dead CFSE labelled SKM-1 cells were gated on positive near infrared (NIR) cells (left side). Dead CTV labelled SKM-1 cells were gated on positive NIR cells (right side).
FIG. 11. HLA-A2 WT-1-TCB dose response for dead CFSE and CTV SKM-1 cells used for first and second stimulation in the presence and absence of dasatinib in the assay of FIG. 8. Mean+/−SEM of 3 donors, two-tailed paired t test (for each concentration), 2 tailed p values: 0.1234 (ns), 0.0332 (*), 0.0021 (**), 0.0002 (***), <0.0001 (****).
To assess whether dasatinib can efficiently prevent TCB-mediated target cell killing by activated T cells, we set up an in vitro killing assay with two stimulation steps, mimicking an ON/OFF switch. […]

Cc1nc(Nc2ncc(C(=O)Nc3c(C)cccc3Cl)s2)cc(N2CCN(CCO)CC2)n1 [dasatinib, N-(2-chloro-6-methylphenyl)-2-[[6-[4-(2-hydroxyethyl)-1-piperazinyl]-2-methyl-4-pyrimidinyl]amino]-5-thiazole carboxamide monohydrate]
killing of SUDLH-8 tumor cells by CD19-TCB (SUDLH-8 tumor cells): prevented killing | Cmax [1]: 54.6 ng/mL | Cmin [1]: 2.61 ng/mL | CD19-TCB-mediated cytokine release (IFN-γ, TNF-α, IL-2, IL-6) upon the first infusion ([2]; 20 mg/kg dasatinib p.o. + 0.5 mg/kg CD19-TCB i.v., serum 6 hrs): strongly reduced | body weight change ([2]; 24 hrs after the first CD19-TCB treatment, 20 mg/kg dasatinib): milder body weight change | interference with CD19-TCB anti-tumor efficacy (tumor growth curves) ([2]; transient use of 20 mg/kg dasatinib with 0.5 mg/kg CD19-TCB): minimally, yet not significantly, interfered | half-life [3]: around 6 hrs | killing of CTV labelled Z138 target cells (ON/OFF versus ON/ON) (Z138 target cells): effectively prevented the killing | CTV labelled SKM-1 cells alive upon second stimulation (SKM-1 tumor cells; 10 nM HLA-A2 WT-1 TCB in the presence of 100 nM dasatinib): 87.6% | killing of CTV labelled SKM-1 cells (ON/OFF versus ON/ON) (SKM-1 tumor cells; 100 nM dasatinib upon re-stimulation): effectively prevented the killing
